Laboratory results: US20090131524A1, “SIALIC ACID ABC TRANSPORTERS IN PROKARYOTES THERAPEUTIC TARGETS” (BUCK INSTITUTE, priority 2005, published 2009)

Tested on: H. ducreyi
Assay: growth of H. ducreyi in the presence of sialic acid
Type: cell-based, Haemophilus ducreyi
Procedure: H. ducreyi strains were cultured on chocolate agar plates at 35° C. in a 5% CO2 atmosphere as previously described (42). Chocolate agar was supplemented with 1 mM NeuAc (Calbiochem, La Jolla, Calif.) or kanamycin at 20 μg/ml when appropriate. E. coli strains were grown on Luria-Bertani (LB) plates or in LB broth, and were supplemented with kanamycin when appropriate.
In this and previous studies, H. ducreyi were grown on plates containing high levels of sialic acid (22, 50). […] To more quantitatively test whether the presence of high levels of sialic acid affected the growth rate of H. ducreyi, growth curves of H. ducreyi in low (˜0.5 μM, basal level in media) (50), medium (10 μM), and high (1 mM) sialic acid conditions were performed (46). […] Both E. coli and H. influenzae seem to utilize their ability to degrade sialic acid as one mechanism of controlling the intracellular levels of sialic acid (66, 68, 69). As noted above, it is currently unclear if H. ducreyi is able to degrade sialic acid. Another possible mechanism for controlling sialic acid uptake may be through the PBPs. […] Therefore, it is possible that SatA may play an important role in controlling sialic acid uptake in H. ducreyi. One mechanism of control could be that the level of satA expression may be affected by the intracellular levels of sialic acid. […]

For `CC(=O)N[C@H]1[C@H]([C@H](O)[C@H](O)CO)OC(O)(C(=O)O)C[C@@H]1O` (some centres unmarked) [sialic acid, N-acetyl-neuraminic acid], the “effect of sialic acid on growth of the bacteria on plates” value (grown on plates containing high levels of sialic acid) was “did not seem to affect the growth” and the “growth rate (growth curves)” value (low (~0.5 μM, basal level in media), medium (10 μM) and high (1 mM) sialic acid) was “no differences in the growth rates”.
